Test results from patent US20250304544A1, “MOLEPHANTIN DERIVATIVES USEFUL IN THE TREATMENT OF CANCER” (Nanyang Technological University, priority 2021, published 2025).
Like-named read-outs stand apart in the source and are kept apart here.

Key:
[1] = system: HCT116 cells xenograft; assay: HCT116 subcutaneous tumour xenograft mouse model; type: in vivo; details: HCT116 xenografted mice, 25 mg/kg intraperitoneal once every 2 days, after 21 days
Method: (§1) Female J:Nu outbred nude mice (5-6 weeks old) were injected subcutaneously at the right flank with 1×10^6 HCT116 or DLD-1 cells in 1:1 Hank's Balanced salt solution/Matrigel. Mice were assigned into treatment groups (4-5 mice per group) when tumour volumes reached 50-100 mm^3. Vehicle control (Ethanol:Kolliphor EL:saline=1:1:8), NYH001 (25 mg/kg), NYH002 (25 mg/kg) or 5-flurouracil (5-FU, 25 mg/kg) was given once every 2 days by intraperitoneal injection for 3 weeks. Bodyweight of the mice was taken every day and tumour size was measured twice a week. Tumour sizes were calculated using the formula, volume=(length×width^2)/2 mm^3. At the end of the 3 weeks treatment period, the mice were sacrificed and tumours excised. All procedures were approved by the NTU Institutional Animal Care and Use Committee (IACUC) and conducted in accordance with the IACUC protocol A20001.

[2] = system: DLD-1 cells xenograft; assay: DLD-1 subcutaneous tumour xenograft mouse model; type: in vivo; details: DLD-1 xenografted mice, 25 mg/kg intraperitoneal once every 2 days, after 21 days
Method: as §1

[3] = system: DLD-1; assay: MTT cytotoxicity assay, DLD-1; type: cell-based; details: Homo sapiens
Method: (§2) To test the cytotoxicity effect of the compounds NYH001-NYH005 in various cancer cell types, different cancer cells were treated with the compounds for 48 hours and analyzed using MTT assay. […] Absolute IC50 values of the compounds were calculated (Table 1, FIG. 1A-C).

[4] = system: HCT116; assay: MTT cytotoxicity assay, HCT116; type: cell-based; details: Homo sapiens, HCT-116, HCT116, colon carcinoma, 48 hours, absolute IC50
Method: as §2

[5] = system: AGS; assay: MTT cytotoxicity assay, AGS; type: cell-based; details: Homo sapiens, stomach adenocarcinoma, 48 hours, absolute IC50
Method: as §2

[6] = system: Hs746T; assay: MTT cytotoxicity assay, Hs746T; type: cell-based; details: Homo sapiens, stomach carcinoma, 48 hours, absolute IC50
Method: as §2

[7] = system: MDA-MB-231; assay: MTT cytotoxicity assay, MDA-MB-231; type: cell-based; details: Homo sapiens, MDA-MB-231, breast adenocarcinoma, 48 hours, absolute IC50
Method: as §2

[8] = system: Mcf-7; assay: MTT cytotoxicity assay, Mcf-7; type: cell-based; details: Homo sapiens, MCF7, Mcf-7, breast adenocarcinoma, 48 hours, absolute IC50
Method: as §2

[9] = system: Du145; assay: MTT cytotoxicity assay, Du145; type: cell-based; details: Homo sapiens, DU-145, Du145, prostate carcinoma, 48 hours, absolute IC50
Method: as §2

[10] = system: PC3; assay: MTT cytotoxicity assay, PC3; type: cell-based; details: Homo sapiens, PC-3, PC3, prostate adenocarcinoma, 48 hours, absolute IC50
Method: as §2

[11] = system: H1299; assay: MTT cytotoxicity assay, H1299; type: cell-based; details: Homo sapiens, NCI-H1299, H1299, lung carcinoma, 48 hours, absolute IC50
Method: as §2

[12] = system: A549; assay: MTT cytotoxicity assay, A549; type: cell-based; details: Homo sapiens, A549, lung carcinoma, 48 hours, absolute IC50
Method: as §2

[13] = system: Huh7; assay: MTT cytotoxicity assay, Huh7; type: cell-based; details: Homo sapiens, Huh-7, Huh7, liver carcinoma, 48 hours, absolute IC50
Method: as §2

[14] = system: Hep3B; assay: MTT cytotoxicity assay, Hep3B; type: cell-based; details: Homo sapiens, liver carcinoma, 48 hours, absolute IC50
Method: as §2

[15] = system: human myeloid leukemia cell line K562; details: cited from earlier work
[16] = system: human hepatoma cell line (SMMC-7221); details: cited from earlier work
[17] = system: cancer cells; assay: Colony formation (clonogenic) assay; type: cell-based; details: some cell lines, concentration as low as 1 μM
Method: To further confirm the growth inhibitory effect of compounds on cancer cells, colony formation assays were performed. Cells were treated with various doses of the compounds and allowed to grow for 7-10 days till they form colonies. Colonies were fixed and stained with 0.5% w/v crystal violet, containing methanol. The cell culture plates were rinsed with distilled water before scanning for quantification. Colony counts were quantified using Image J software.

[18] = system: human KB oral carcinoma cells; details: cytotoxic activity / proliferation; cited from earlier work
[19] = DLD-1, colon adenocarcinoma, 48 hours, MTT, absolute IC50, read-out: IC50

In the case of O=c1[nH]cc(F)c(=O)[nH]1 [5-FU, 5-flurouracil, reference compound], the “reduction of average tumor volume compared to vehicle control” value (“reduction of average tumor volume” below) [1] is reported as 10.4%, the “reduction of average tumor weight compared to vehicle control” value (shortened to “reduction of average tumor weight”) [1] is reported as 21.9% and the “reduction of average tumor volume” value [2] is reported as 32.3%. The “reduction of average tumor weight” value [2] was 38.7%.
Work on C=C(C)C(=O)O[C@H]1C/C(C)=C/C(=O)/C=C(/C)[C@@H](O)[C@H]2OC(=O)C(=C)C12 (some centres unmarked) [NYH001, Molephantin] yielded an IC50 [3, 19] of 1500 nM, an IC50 [4] of 2630 nM and an IC50 [5] of 1540 nM. It also gave an IC50 [6] of 1920 nM, an IC50 [7] of 3050 nM and an IC50 [8] of 4820 nM. The IC50 [9] was 4180 nM, the IC50 [10] was 2440 nM and the IC50 [11] was 2970 nM. It also gave an IC50 [12] of 15000 nM, an IC50 [13] of 2880 nM and an IC50 [14] of 3200 nM. The “reduction of average tumor volume” value [1] was 35.4%, the “reduction of average tumor weight” value [1] was 41.7% and the IC50 ([15]; read-out: IC50) was 7900 nM. For the same compound, the IC50 ([16]; read-out: IC50) was 5800 nM.
Compound C=C(C)C(=O)O[C@H]1C/C(C)=C/C(=O)/C=C(/C)[C@@H](OC(=O)c2ccccc2)[C@H]2OC(=O)C(=C)C12 (some centres unmarked) [NYH002] has an IC50 [3, 19] of 353 nM, an IC50 [4] of 869 nM and an IC50 [5] of 421 nM. It also gave an IC50 [6] of 468 nM, an IC50 [7] of 909 nM and an IC50 [8] of 2000 nM. For the same compound, the IC50 [9] was 2360 nM, the IC50 [10] was 1280 nM and the IC50 [11] was 1350 nM. For the same compound, the IC50 [12] was 5080 nM, the IC50 [13] was 1160 nM and the IC50 [14] was 911 nM. The colonies formed [17] was “did not result in any colonies formed”, the “reduction of average tumor volume” value [1] was 46.5% and the “reduction of average tumor weight” value [1] was 49.3%. For the same compound, the “reduction of average tumor volume” value [2] was 51.9% and the “reduction of average tumor weight” value [2] was 57.3%.
C=C(C)C(=O)O[C@H]1C/C(C)=C/C(=O)/C=C(/C)[C@@H](OC(=O)c2ccc(C(F)(F)F)cc2)[C@H]2OC(=O)C(=C)C12 (some centres unmarked) [NYH004] showed an IC50 [3, 19] of 933 nM, an IC50 [4] of 1300 nM and an IC50 [5] of 1020 nM. The IC50 [6] was 1190 nM, the IC50 [7] was 1140 nM and the IC50 [8] was 2040 nM. For the same compound, the IC50 [9] was 3000 nM, the IC50 [10] was 1970 nM and the IC50 [11] was 1670 nM. It also gave an IC50 [12] of 5230 nM, an IC50 [13] of 1590 nM and an IC50 [14] of 1850 nM.
Work on C=C(C)C(=O)O[C@H]1C/C(C)=C/C(=O)/C=C(/C)[C@@H](OC(=O)c2cc(C(F)(F)F)cc(C(F)(F)F)c2)[C@H]2OC(=O)C(=C)C12 (some centres unmarked) [NYH005] yielded an IC50 [3, 19] of 615 nM, an IC50 [4] of 1590 nM and an IC50 [5] of 1120 nM. It also gave an IC50 [6] of 1940 nM, an IC50 [7] of 1470 nM and an IC50 [8] of 2380 nM. The IC50 [9] was 3600 nM, the IC50 [10] was 2480 nM and the IC50 [11] was 1550 nM. It also gave an IC50 [12] of 5860 nM, an IC50 [13] of 2090 nM and an IC50 [14] of 2000 nM.
C=C(C)C(=O)O[C@H]1C/C(C)=C/C(=O)/C=C(/C)[C@@H](OC(=O)c2ccc([N+](=O)[O-])cc2)[C@H]2OC(=O)C(=C)C12 (some centres unmarked) [NYH007] showed an IC50 ([3]; DLD-1 cells, read-out: IC50 (cytotoxic effect)) of 350 nM.
In the case of C=C(C)C(=O)O[C@H]1C/C(C)=C\[C@@]2(OC)C=C(C)[C@@H](O2)[C@H]2OC(=O)[C@@H](COC)[C@@H]21 [Tomenphantopin-C], the IC50 [15] is listed as “inactive” and the IC50 [16] is listed as “inactive”.
For Tomenphantine-A, the ED50 [18] is listed as 3.0 µg/mL.
In the case of Tomenphantine-B, the ED50 [18] is listed as 2.7 µg/mL.
In the case of Tomenphantopin-A, the ED50 [18] is given as 2.5 µg/mL.
In the case of Tomenphantopin-B, the ED50 [18] is given as 5.0 µg/mL.
In the case of Tomenphantopin-D, the IC50 ([15]; read-out: IC50) is listed as 44800 nM and the IC50 ([16]; read-out: IC50) is listed as 11200 nM.
In the case of Tomenphantopin-E, the IC50 [15] is listed as “inactive” and the IC50 [16] is listed as “inactive”.
In the case of Tomenphantopin-F, the IC50 [15] is listed as “inactive” and the IC50 [16] is listed as “inactive”.
